Tested on: U87MG (glioblastoma) xenograft tumors
Test: U87MG glioblastoma xenograft tumor growth in nude mice
Assay type: in vivo
Conditions: for inhibition of U87MG glioblastoma xenograft tumor growth: TMZ alone, ip Day 1-5
Method: The following human glioblastoma xenograft model may be employed to ascertain the efficacy of the formulations and methods described herein. Human glioblastoma cell U87MG are inoculated subcutaneously into female nude mice (age 4-6 wks). Xenograft tumor growth is followed by measuring the tumor size using a caliper. Once tumor size reaches about 100 mm3 (average), mice carrying the xenograft tumors are grouped and treated with different doses of the combination of TMZ and a PKC inhibitor (e.g., enzastaurin). Likewise, human glioblastoma cell U373 may be used to establish a xenograft model.
The combination of TMZ and a PKC inhibitor (e.g., enzastaurin) for treating a cell proliferative disorder was examined using a glioblastoma xenograft model. In particular, the glioblastoma model U87MG was used to evaluate the efficacy of PKC inhibitor enzataurin as a single agent compared to TMZ (Temodar®), a chemotherapeutic drug clinically approved for treating brain tumor, as a single agent. In addition, this study looked at the efficacy of the combination of TMZ with enzastaurin in comparison to the efficacy with either agent alone.
In brief, nude mice were inoculated with U87-MG glioblastoma cells and the resultant tumors treated with control, or various concentrations of TMZ, enzastaurin, or a combination of both TMZ and enzastaurin. More specifically, 150 female nude mice (strain NU/NU), aged 5-7 weeks old were purchased from Charles River Laboratory. Four million glioblastoma cells U87-MG were mixed 1:1 (volume:volume) with Matrigel (Cat. #354234, BD Biosciences) on ice and mixtures were inoculated subcutaneously to the flank of each mouse. Dosing was initiated when the tumors reached an average size of 90 mm^3. The dosing volume was 0.2 mL. Tumor size and body weight was measured two to three times per week. […] Note that there were 10 nude mice per dosing regimen.

Cn1nnc2c(C(N)=O)ncn2c1=O [TMZ, 3,4-dihydro-3-methyl-4-oxoimidazo[5,1-d]-as-tetazine-8-carboxamide]
inhibition of U87MG glioblastoma xenograft tumor growth (5 mpk qd): 98%
inhibition of U87MG glioblastoma xenograft tumor growth (10 mpk qd): 102%
inhibition of U87MG glioblastoma xenograft tumor growth (20 mpk qd): 103%

Cn1cc(C2=C(c3cn(C4CCN(Cc5ccccn5)CC4)c4ccccc34)C(=O)NC2=O)c2ccccc21 [enzastaurin]
effect on tumor growth as single agent (enzastaurin alone, 37.5 or 75 mpk qd, po): little effect on tumor growth

— patent publication US20070112053A1, “Pharmaceutical compositions and methods using temozolomide and a protein kinase inhibitor” (priority 2005, published 2007)
